Measurements: ChEMBL document CHEMBL1201862, “PubChem BioAssay data set” (2004)
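48-hour exposure; five concentrations; linearly interpolated endpoints. GI50 marks 50% less growth.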 Activity calls are given as the source filed them. Cut-off read from the data, not from the text of the source: active = GI50 up to about 1.1 µM and inactive = higher.

Key:
Assay in all cases: inhibition of tumour cell growth, NCI panel, 48 h
[1] = tested on: A549
[2] = tested on: ACHN
[3] = tested on: HCT-116
[4] = tested on: HL-60
[5] = tested on: K562
[6] = tested on: KM12
[7] = tested on: LOX IMVI
[8] = tested on: M14
[9] = tested on: MOLT-4
[10] = tested on: NCI-H226
[11] = tested on: SN12C
[12] = tested on: SR
[13] = tested on: UACC-257
[14] = tested on: UACC-62
[15] = tested on: UO-31
[16] = tested on: EKVX

Measured: GI50

Cc1ccc(OCC(=O)N2N=C(c3ccccc3)CC2(O)c2ccccc2)cc1 (stereo not drawn)
inactive: [1] 20.5 µM | [2] > 100 µM | [3] > 100 µM | [4] 27.8 µM | [5] 20.2 µM | [6] 99.5 µM | [7] 99.5 µM | [8] 34.4 µM | [9] 7.89 µM | [10] 25.9 µM | [11] 17.3 µM | [12] 9.44 µM | [13] > 100 µM | [14] 43.4 µM | [15] > 100 µM

Cc1ccc(NC(=O)c2cc3cc(/N=N/c4ccc(Br)cc4)ccc3oc2=O)cc1
inactive: [1] > 100 µM | [2] 53 µM | [3] 46.9 µM | [4] 23.4 µM | [6] 47.6 µM | [7] > 100 µM | [8] > 10 µM | [9] 83 µM | [10] > 100 µM | [11] > 100 µM | [12] 61 µM | [13] > 100 µM

N#Cc1ccccc1NC(=O)C(=O)C(C(=O)c1ccccc1-c1ccccc1)C1OC(=O)c2ccccc21 (stereo not drawn)
inactive: [1] > 100 µM | [2] 53.6 µM | [16] 18.5 µM | [3] 11 µM | [4] 14 µM | [5] 21.7 µM | [6] 18.1 µM | [7] 15 µM | [8] 15.4 µM | [9] 13.9 µM | [10] 2.58 µM | [13] 15.2 µM | [14] 16.7 µM | [15] > 10 µM

N#Cc1nn(-c2ccc(Cl)cc2)c(=N)c2c(N)n3nc(-c4ccccc4)cc3nc12
inactive: [4] > 100 µM | [10] 39.7 µM
active: [1] 1 µM | [2] 1 µM | [16] 1 µM | [3] 1 µM | [5] 1 µM | [6] < 0.01 µM | [7] 0.594 µM | [8] 1 µM | [9] 0.294 µM | [11] 1 µM | [12] < 0.01 µM | [13] 1 µM | [14] 1 µM

C[n+]1c2ccccc2c(/C=N\NS(=O)(=O)c2ccc(Cl)cc2)c2ccccc21
inactive: [1] 23 µM | [2] 68.2 µM | [16] > 100 µM | [3] 33.7 µM | [4] 30.1 µM | [5] 17.7 µM | [6] 44.2 µM | [7] 16.8 µM | [8] 56.4 µM | [9] 32.9 µM | [10] 68.2 µM | [11] 56.8 µM | [13] > 100 µM | [14] 37.8 µM | [15] 27.3 µM

CCOC(=O)NC(=O)c1cn(CCCOC(=O)CCCCCCCCC(=O)OCCCn2cc(C(=O)NC(=O)OCC)c(=O)[nH]c2=O)c(=O)[nH]c1=O
inactive: [1] 55.6 µM | [2] 21.1 µM | [16] 38.1 µM | [3] 24.2 µM | [4] 5.14 µM | [5] 4.01 µM | [7] 16.4 µM | [8] 21.5 µM | [9] 19 µM | [11] 28.2 µM | [13] 16.9 µM | [14] 17.5 µM

CC1(C)OC(=O)[C@@](C)([C@H](O)c2ccccc2)O1
inactive: [1] 83.2 µM | [2] > 100 µM | [16] > 100 µM | [3] 93.8 µM | [4] 32.6 µM | [5] 67.9 µM | [6] > 100 µM | [8] > 100 µM | [9] 45.1 µM | [10] 27.6 µM | [11] > 100 µM | [12] 50.6 µM | [13] > 100 µM | [14] 78.2 µM | [15] > 100 µM

O=C(O)c1ccccc1C1c2ccc(Cl)cc2Oc2cc(Cl)ccc21
inactive: [1] > 100 µM | [2] > 100 µM | [16] > 100 µM | [4] > 100 µM | [5] > 100 µM | [6] > 100 µM | [7] > 100 µM | [8] > 100 µM | [9] > 100 µM | [11] > 100 µM | [13] > 100 µM | [14] > 100 µM | [15] > 100 µM

CC(=O)Nc1ccc(-c2nnc(SCC(=O)Nc3cccc(C)c3)o2)cc1
inactive: [1] 21.3 µM | [2] 10.7 µM | [3] 11.8 µM | [4] 19.5 µM | [5] 10.8 µM | [6] 10.8 µM | [7] 3.43 µM | [8] 13 µM | [9] 4.84 µM | [10] 14.4 µM | [11] 15.2 µM | [12] 4.93 µM | [13] 12.3 µM | [14] 8.26 µM | [15] 13.2 µM

CCOCN1COCN/C1=N/C#N
inactive: [1] 31.8 µM | [2] > 100 µM | [16] > 100 µM | [3] > 100 µM | [4] > 100 µM | [5] > 100 µM | [6] > 100 µM | [8] > 100 µM | [9] > 100 µM | [10] > 100 µM | [11] > 100 µM | [12] 25.8 µM | [13] > 100 µM | [14] > 100 µM | [15] > 100 µM

COc1ccc2cc3c4cc(OC)c(OC)cc4ccn3c2c1
inactive: [1] > 100 µM | [2] > 100 µM | [16] > 100 µM | [4] > 100 µM | [5] > 100 µM | [6] > 100 µM | [7] > 100 µM | [9] > 100 µM | [10] > 100 µM | [11] > 100 µM | [12] > 100 µM | [13] > 100 µM | [14] > 100 µM | [15] > 100 µM

CC(C)CCCC(C)[C@H]1CCC2[C@@H]3CCC4Nc5c(cnn5-c5ccccc5)C[C@]4(C)C3CC[C@@]21C (stereo partly drawn)
inactive: [1] 52.2 µM | [2] 29.8 µM | [16] 7.52 µM | [3] 51.6 µM | [4] 4.67 µM | [5] 28.1 µM | [6] 29.6 µM | [8] 39.8 µM | [9] 3.32 µM | [10] 17.9 µM | [11] 83 µM | [13] 44.5 µM | [14] 8.05 µM | [15] 15 µM

COc1cccc(/C=C\c2cc(OC)c(OC)c(OC)c2)c1
inactive: [2] 5.79 µM | [16] 3.49 µM | [11] 4.08 µM | [15] 4.48 µM
active: [1] 0.668 µM | [3] 0.548 µM | [5] 0.373 µM | [6] 0.543 µM | [8] 0.604 µM | [9] 0.379 µM | [10] 0.745 µM | [12] 0.498 µM | [13] 0.505 µM | [14] 0.455 µM

Cc1cc(C)c(C(=O)/C=C/c2ccccc2)c(C)c1
inactive: [1] 30.2 µM | [2] 38.4 µM | [16] 40.4 µM | [3] 24.8 µM | [4] 25.9 µM | [5] 26.5 µM | [6] 35.2 µM | [8] 19.4 µM | [9] 24.9 µM | [10] 22.8 µM | [11] 14.4 µM | [12] 30.5 µM | [13] 33.8 µM | [14] 31.8 µM | [15] 52.4 µM
